PubChem BioAssay AID434987 (Southern Research Specialized Biocontainment Screening …, 2010)
Activity calls are given as the source filed them. How the calls were made is not given here.

Test system: M. tuberculosis H37Rv growth inhibition with meropenem
Experiment: dose response, H37Rv, with and without meropenem (AID 434987);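 further: growth over 7 days at 37 °C before Alamar Blue read on day 9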
[1] = M. tuberculosis H37Rv growth inhibition, measured here: IC50 without meropenem
[2] = M. tuberculosis H37Rv growth inhibition, measured here: IC90 without meropenem
[3] = measured here: IC90 with meropenem

SMILES | IC50 | IC50 [1] | IC90 [2] | IC90 [3]
CC(C)(C)c1ccc(OCC(=O)N/N=C/c2cc(Br)ccc2OC(=O)c2ccco2)cc1 | 82.7 µM (inactive) | > 100 µM | > 100 µM | > 100 µM
CCOc1ccc2nc(N3CCC(C(=O)NC4CCCCC4)CC3)sc2c1 | > 100 µM (inactive) | > 100 µM | > 100 µM | > 100 µM
O=c1[nH]c(CSc2nnc3ccccn23)nc2ccccc12 | > 100 µM (inactive) | > 100 µM | > 100 µM | > 100 µM
N/C(=N\c1nc2ccccc2o1)NC(=O)c1ccccc1Br | < 0.2 µM | 28.4 µM | > 100 µM | > 100 µM
COc1ccc(C2c3c(C)nn(-c4ccccc4)c3NC(=O)N2c2ccccc2)cc1 (stereo unspecified) | 17.4 µM | > 100 µM | > 100 µM | > 100 µM
Cn1c(=O)c2ccccc2n2c(CCl)nnc12 | 1.22 µM | 3.19 µM | > 100 µM | 4.65 µM
CSc1cccc(NC(=O)c2ccc(Cl)nc2)c1 | > 100 µM (inactive) | > 100 µM | > 100 µM | > 100 µM
CN(NC(=O)c1c(Cl)cccc1Cl)c1cccc(Cl)n1 | 7.34 µM | 62.3 µM | > 100 µM | > 100 µM
CCOC(=O)NC1c2ccccc2Oc2ccccc21 | 37.6 µM | > 100 µM | > 100 µM | > 50 µM
Cc1cccc2c(C(=O)n3cccn3)cc(-c3ccccc3Cl)nc12 | 7.95 µM | 52.7 µM | > 100 µM | 26.8 µM
COc1ccc2ccccc2c1/C=N/NC(=O)c1cccc(C)c1 | 64.9 µM (inactive) | > 100 µM | > 100 µM | > 100 µM
Cc1cc(NC(=O)c2ccc3c(c2)OCCO3)ccc1NC(=O)c1cc2ccccc2o1 | 76.3 µM (inactive) | > 100 µM | > 100 µM | > 100 µM
Cc1ccc(Cn2c(NC(=O)c3ccco3)nc3ccccc32)cc1 | 2.62 µM | > 100 µM | > 100 µM | > 100 µM
Cn1cccc1/C=C1/C(=O)NC(=O)N(Cc2ccc(F)cc2)C1=O | 23.7 µM (inactive) | 46.2 µM | > 50 µM | > 50 µM
COc1ccc(C(=O)Nc2ccc3nc(N4CCCCC4)cc(C)c3c2)c(OC)c1 | 5.19 µM | > 100 µM | > 100 µM | > 100 µM
COc1cc(C(=S)N2CCOCC2)ccc1OC(=O)c1ccc([N+](=O)[O-])cc1[N+](=O)[O-] | 3.24 µM (inactive) | 6.01 µM | 7.13 µM | 5.92 µM
CN(Cc1ccccc1)C(=S)NC(=O)c1ccc(-c2ccccc2)cc1 | 7.23 µM | 24.2 µM | > 100 µM | > 100 µM
Cc1ccc(C(=O)c2oc3ccccc3c2NC(=O)c2cc(-c3cc(C)ccc3O)n[nH]2)cc1 | > 100 µM (inactive) | > 100 µM | > 100 µM | > 100 µM
Cn1c(/C=C/c2ccc(Cl)cc2)nc2ccccc2c1=O | 52.1 µM (inactive) | > 100 µM | > 100 µM | > 100 µM
CC(C)OC(=O)CSc1nc(N2CCOCC2)c2c(c1C#N)CC(C)(C)OC2 | > 100 µM (inactive) | > 100 µM | > 100 µM | > 100 µM
Cc1ccc(C(=O)OCCN2CCN(c3ncc(C(F)(F)F)cc3Cl)CC2)cc1 | > 100 µM (inactive) | > 100 µM | > 100 µM | > 100 µM
COc1ccc(/C=C/C(=O)N(C(C)C)C(C)C)cc1Br | 5.89 µM | 93 µM | > 100 µM | 96.4 µM
Cc1ccc(S(=O)(=O)Nc2cccc3cccnc23)c([N+](=O)[O-])c1 | 1.1 µM | 9.07 µM | 12.4 µM | 4.7 µM
CC1CCN(CC(CS(=O)(=O)c2ccc([N+](=O)[O-])cc2)N2CCC(C)CC2)CC1 (stereo unspecified) | 13.7 µM (inactive) | 21 µM | 30.3 µM | 31.5 µM
CC(=O)C1=C(C)NC(SCC(=O)c2ccccc2)=C(C#N)C1CC(C)C (stereo unspecified) | 51.8 µM (inactive) | 88.5 µM | > 100 µM | > 100 µM
O=C(COc1cccc2cccnc12)N/N=C/c1ccc(O)cc1 | 27 µM | > 100 µM | > 100 µM | > 50 µM
Cc1c(C(=O)c2ccccc2)oc2ccc3ccccc3c12 | > 100 µM (inactive) | > 100 µM | > 100 µM | > 100 µM
O=C1NC(c2ccc(Br)cc2)Nc2sc3c(c21)CCC3 (stereo unspecified) | > 100 µM (inactive) | > 100 µM | > 100 µM | > 100 µM
COc1ccc([N+](=O)[O-])cc1C1NN=C(c2ccccc2O)S1 (stereo unspecified) | > 100 µM (inactive) | > 100 µM | > 100 µM | > 100 µM
